Source: paper PMC4447944 (The Journal of Biological Chemistry, 2015)

How the values were obtained:
hALK(C1156Y) = target: T1, hALK(C1156Y) (Homo sapiens, UniProt Q9UM73, C1156Y); assay: KINOMEscan; type: binding
T1 construct: purchased DiscoverX

CYP2D6 = target: T2, CYP2D6 (Homo sapiens, UniProt P10635); assay: Cytochrome p450 inhibition (Eurofins-CEREP); type: in vitro ADME
T2 construct: Eurofins-CEREP

hFGFR2 = target: T3, hFGFR2 (Homo sapiens, UniProt P21802); assay: KINOMEscan; type: binding
T3 construct: purchased DiscoverX

hEGFR(L858R) = target: T4, hEGFR(L858R) (Homo sapiens, UniProt P00533, L858R); assay: KINOMEscan; type: binding
T4 construct: purchased DiscoverX

hJAK1(JH1Dom.-catalytic) = target: T5, hJAK1(JH1Dom.-catalytic) (Homo sapiens, UniProt P23458); assay: KINOMEscan; type: binding
T5 construct: hJAK1(JH1Dom.-catalytic); purchased DiscoverX (KINOMEscan panel)

hRET(V804M) = target: T6, hRET(V804M) (Homo sapiens, UniProt P07949, V804M); assay: KINOMEscan; type: binding
T6 construct: purchased DiscoverX (KINOMEscan platform)

hTBK1 = target: T7, hTBK1 (Homo sapiens, UniProt Q9UHD2); assay: KINOMEscan; type: binding
T7 construct: purchased DiscoverX
T7 sequence (Q9UHD2 whole entry): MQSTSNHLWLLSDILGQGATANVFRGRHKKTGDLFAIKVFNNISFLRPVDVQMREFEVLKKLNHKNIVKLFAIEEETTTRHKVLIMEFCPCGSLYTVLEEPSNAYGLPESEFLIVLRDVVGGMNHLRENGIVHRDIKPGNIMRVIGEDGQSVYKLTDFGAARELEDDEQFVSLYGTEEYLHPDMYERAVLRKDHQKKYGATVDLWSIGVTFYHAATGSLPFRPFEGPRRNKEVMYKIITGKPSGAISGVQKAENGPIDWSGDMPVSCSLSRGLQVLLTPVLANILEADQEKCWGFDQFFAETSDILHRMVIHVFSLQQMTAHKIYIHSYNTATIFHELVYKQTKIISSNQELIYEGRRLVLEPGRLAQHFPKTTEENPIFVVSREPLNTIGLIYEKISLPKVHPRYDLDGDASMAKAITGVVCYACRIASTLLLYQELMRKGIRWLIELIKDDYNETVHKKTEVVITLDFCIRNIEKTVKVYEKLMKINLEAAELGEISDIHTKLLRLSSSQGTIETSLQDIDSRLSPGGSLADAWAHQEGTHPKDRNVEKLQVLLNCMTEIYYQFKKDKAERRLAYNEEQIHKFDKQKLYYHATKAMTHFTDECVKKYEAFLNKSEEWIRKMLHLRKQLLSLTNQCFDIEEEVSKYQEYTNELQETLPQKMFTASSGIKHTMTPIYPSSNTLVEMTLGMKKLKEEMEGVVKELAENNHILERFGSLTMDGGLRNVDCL

hBRAF(V600E) = target: T8, hBRAF(V600E) (Homo sapiens, UniProt P15056, V600E); assay: KINOMEscan; type: binding
T8 construct: purchased DiscoverX

hADRα1A = target: T9, hADRα1A (Homo sapiens, UniProt P35348); assay: Calcium Mobilization Potentiation (Eurofins-CEREP); settings: @ 10 μM
T9 sequence (P35348 1-466): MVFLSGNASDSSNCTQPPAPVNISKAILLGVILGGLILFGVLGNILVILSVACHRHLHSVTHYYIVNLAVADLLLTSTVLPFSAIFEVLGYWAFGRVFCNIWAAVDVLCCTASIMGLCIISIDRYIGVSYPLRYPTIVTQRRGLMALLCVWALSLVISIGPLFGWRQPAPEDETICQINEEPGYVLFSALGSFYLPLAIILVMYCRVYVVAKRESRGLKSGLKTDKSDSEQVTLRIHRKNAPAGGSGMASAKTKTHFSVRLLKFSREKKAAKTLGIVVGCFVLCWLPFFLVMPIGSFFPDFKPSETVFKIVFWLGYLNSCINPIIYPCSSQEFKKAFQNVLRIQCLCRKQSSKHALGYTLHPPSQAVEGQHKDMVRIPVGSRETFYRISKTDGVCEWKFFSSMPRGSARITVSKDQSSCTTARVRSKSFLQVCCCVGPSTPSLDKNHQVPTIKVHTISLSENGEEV

hADCK4 = target: T10, hADCK4 (Homo sapiens, UniProt Q96D53); assay: KINOMEscan; type: binding
T10 construct: purchased DiscoverX

hMAP3K4 = target: T11, hMAP3K4 (Homo sapiens, UniProt Q9Y6R4); assay: KINOMEscan; type: binding
T11 construct: purchased DiscoverX (KINOMEscan platform)
T11 sequence (Q9Y6R4 whole entry): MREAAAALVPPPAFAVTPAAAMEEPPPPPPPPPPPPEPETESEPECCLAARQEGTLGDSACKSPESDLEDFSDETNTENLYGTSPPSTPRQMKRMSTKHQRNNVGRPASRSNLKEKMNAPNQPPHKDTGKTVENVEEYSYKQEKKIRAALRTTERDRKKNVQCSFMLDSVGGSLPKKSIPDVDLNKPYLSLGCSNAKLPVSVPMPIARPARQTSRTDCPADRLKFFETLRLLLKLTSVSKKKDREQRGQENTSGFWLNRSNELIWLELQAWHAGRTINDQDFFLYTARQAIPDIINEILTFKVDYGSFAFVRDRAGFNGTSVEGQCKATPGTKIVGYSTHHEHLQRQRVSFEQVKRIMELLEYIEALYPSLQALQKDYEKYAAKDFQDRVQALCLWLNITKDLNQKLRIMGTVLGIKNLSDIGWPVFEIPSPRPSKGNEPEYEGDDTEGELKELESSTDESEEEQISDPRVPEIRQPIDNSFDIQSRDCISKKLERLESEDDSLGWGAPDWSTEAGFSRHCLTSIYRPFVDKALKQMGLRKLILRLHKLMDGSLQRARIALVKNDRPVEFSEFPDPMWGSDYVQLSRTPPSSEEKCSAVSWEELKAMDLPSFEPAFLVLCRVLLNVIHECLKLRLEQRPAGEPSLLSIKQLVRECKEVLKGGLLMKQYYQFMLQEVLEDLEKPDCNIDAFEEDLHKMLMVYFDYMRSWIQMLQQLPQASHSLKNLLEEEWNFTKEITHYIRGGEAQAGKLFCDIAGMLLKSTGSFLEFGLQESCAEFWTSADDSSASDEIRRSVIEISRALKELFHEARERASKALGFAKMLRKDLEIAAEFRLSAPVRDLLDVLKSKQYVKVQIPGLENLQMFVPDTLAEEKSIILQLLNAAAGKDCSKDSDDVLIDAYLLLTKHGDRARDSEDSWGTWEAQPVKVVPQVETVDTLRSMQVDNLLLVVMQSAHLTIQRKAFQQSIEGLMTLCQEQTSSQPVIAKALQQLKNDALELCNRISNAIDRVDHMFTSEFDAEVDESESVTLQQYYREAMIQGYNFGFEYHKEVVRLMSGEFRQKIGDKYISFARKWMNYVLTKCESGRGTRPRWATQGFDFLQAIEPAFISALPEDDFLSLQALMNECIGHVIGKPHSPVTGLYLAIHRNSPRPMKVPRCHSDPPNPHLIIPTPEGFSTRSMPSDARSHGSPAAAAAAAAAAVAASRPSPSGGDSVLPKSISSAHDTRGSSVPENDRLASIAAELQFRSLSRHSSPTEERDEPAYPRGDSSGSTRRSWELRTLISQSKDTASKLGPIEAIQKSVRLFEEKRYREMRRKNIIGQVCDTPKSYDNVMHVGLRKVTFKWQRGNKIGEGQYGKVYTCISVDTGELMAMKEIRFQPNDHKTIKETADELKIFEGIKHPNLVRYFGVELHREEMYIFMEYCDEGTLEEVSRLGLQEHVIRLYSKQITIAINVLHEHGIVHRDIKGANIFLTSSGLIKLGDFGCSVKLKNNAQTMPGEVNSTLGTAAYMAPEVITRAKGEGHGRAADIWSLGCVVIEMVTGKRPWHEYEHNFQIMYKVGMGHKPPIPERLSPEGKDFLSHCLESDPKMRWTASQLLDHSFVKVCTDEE

hADRβ1 = hADRβ1 (Homo sapiens, UniProt P08588); assay: cAMP Agonist (Eurofins-CEREP); settings: @ 10 μM
hSNRK = target: T12, hSNRK (Homo sapiens, UniProt Q9NRH2); assay: KINOMEscan; type: binding
T12 construct: purchased DiscoverX (KINOMEscan platform)
T12 sequence (Q9NRH2 whole entry): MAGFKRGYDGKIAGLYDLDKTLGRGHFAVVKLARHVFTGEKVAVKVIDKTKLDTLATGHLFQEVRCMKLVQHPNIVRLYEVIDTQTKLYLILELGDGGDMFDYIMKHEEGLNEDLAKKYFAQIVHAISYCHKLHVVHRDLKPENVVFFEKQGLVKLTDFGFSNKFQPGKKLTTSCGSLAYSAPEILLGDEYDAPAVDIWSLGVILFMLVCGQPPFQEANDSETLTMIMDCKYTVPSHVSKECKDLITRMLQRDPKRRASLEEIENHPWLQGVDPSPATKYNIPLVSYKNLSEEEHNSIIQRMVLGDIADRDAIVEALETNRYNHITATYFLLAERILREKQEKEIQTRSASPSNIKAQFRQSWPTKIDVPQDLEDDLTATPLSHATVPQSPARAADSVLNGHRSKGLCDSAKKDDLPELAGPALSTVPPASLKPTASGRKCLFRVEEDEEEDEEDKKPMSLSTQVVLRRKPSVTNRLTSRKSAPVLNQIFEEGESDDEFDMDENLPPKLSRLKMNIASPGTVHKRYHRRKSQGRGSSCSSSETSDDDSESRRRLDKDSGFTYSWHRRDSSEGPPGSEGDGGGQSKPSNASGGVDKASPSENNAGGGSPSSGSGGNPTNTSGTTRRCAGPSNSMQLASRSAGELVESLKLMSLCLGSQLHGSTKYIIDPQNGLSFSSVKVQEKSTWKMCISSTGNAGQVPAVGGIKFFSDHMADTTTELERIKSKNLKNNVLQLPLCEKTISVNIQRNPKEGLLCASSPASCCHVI

hTAK1 = target: T13, hTAK1 (Homo sapiens, UniProt O43318); assay: KINOMEscan; type: binding
T13 construct: purchased DiscoverX

hD2L = hD2L (Homo sapiens, UniProt P14416); assay: β-arrestin Antagonist (Eurofins-CEREP); settings: read-out: % Effect, Inhibition
Sequence of hD2L (P14416 whole entry): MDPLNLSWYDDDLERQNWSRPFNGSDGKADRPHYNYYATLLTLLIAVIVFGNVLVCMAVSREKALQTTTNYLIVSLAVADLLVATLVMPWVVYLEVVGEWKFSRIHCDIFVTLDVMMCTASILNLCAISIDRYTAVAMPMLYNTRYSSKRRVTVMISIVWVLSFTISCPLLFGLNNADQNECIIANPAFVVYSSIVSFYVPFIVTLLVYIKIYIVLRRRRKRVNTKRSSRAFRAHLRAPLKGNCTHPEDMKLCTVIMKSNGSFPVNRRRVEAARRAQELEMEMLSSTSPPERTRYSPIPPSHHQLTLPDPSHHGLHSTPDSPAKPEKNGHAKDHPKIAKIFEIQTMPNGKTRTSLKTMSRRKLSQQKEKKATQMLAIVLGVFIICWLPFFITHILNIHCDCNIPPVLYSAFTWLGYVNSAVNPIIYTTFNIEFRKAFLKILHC

hCSF1R = target: T14, hCSF1R (Homo sapiens, UniProt P07333); assay: KINOMEscan; type: binding
T14 construct: purchased DiscoverX (KINOMEscan platform)

hCIT = target: T15, hCIT (Homo sapiens, UniProt O14578); assay: KINOMEscan; type: binding
T15 construct: purchased DiscoverX

hAURKC = target: T16, hAURKC (Homo sapiens, UniProt Q9UQB9); assay: KINOMEscan; type: binding
T16 construct: purchased DiscoverX

hMARK3 = target: T17, hMARK3 (Homo sapiens, UniProt P27448); assay: KINOMEscan; type: binding
T17 construct: purchased DiscoverX
T17 sequence (P27448 whole entry): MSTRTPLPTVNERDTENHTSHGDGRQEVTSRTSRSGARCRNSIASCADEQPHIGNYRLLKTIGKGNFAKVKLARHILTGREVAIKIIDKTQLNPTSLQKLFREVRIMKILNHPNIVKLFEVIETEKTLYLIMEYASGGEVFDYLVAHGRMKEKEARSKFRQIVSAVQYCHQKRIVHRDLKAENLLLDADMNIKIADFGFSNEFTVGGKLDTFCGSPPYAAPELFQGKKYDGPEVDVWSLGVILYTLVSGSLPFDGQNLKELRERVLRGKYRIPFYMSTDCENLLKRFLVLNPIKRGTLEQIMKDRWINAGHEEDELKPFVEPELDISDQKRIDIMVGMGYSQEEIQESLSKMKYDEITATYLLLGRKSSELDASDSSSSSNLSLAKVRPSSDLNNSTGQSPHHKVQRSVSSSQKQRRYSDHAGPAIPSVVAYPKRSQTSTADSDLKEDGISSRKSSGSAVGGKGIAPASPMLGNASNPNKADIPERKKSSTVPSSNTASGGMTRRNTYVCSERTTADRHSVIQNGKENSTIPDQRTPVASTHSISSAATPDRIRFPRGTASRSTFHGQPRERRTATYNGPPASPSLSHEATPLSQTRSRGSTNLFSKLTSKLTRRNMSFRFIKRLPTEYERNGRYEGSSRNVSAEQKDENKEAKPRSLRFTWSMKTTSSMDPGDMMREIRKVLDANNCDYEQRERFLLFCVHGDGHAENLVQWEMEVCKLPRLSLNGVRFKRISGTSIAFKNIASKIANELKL

hYANK3 = target: T18, hYANK3 (Homo sapiens, UniProt Q86UX6); assay: KINOMEscan; type: binding
T18 construct: purchased DiscoverX

hADRα2A = target: T19, hADRα2A (Homo sapiens, UniProt P08913); assay: β-arrestin Antagonist (Eurofins-CEREP); settings: read-out: % Effect, Inhibition
T19 sequence (P08913 1-465): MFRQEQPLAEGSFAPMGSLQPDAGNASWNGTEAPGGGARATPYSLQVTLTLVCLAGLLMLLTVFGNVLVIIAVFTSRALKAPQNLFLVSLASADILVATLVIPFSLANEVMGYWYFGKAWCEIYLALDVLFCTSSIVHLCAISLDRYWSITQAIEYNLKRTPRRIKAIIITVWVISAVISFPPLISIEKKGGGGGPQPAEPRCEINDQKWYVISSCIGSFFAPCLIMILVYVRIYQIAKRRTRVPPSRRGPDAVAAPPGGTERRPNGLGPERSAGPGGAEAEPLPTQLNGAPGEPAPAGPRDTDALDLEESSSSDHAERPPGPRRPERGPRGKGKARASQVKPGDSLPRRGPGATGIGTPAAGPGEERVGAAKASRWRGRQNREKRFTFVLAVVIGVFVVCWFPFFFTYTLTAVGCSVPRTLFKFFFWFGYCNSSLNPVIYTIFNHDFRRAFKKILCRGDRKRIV

hJNK3 = target: T20, hJNK3 (Homo sapiens, UniProt P53779); assay: KINOMEscan; type: binding
T20 construct: purchased DiscoverX (KINOMEscan panel)

hCSNK1A1L = target: T21, hCSNK1A1L (Homo sapiens, UniProt Q8N752); assay: KINOMEscan; type: binding
T21 construct: purchased DiscoverX (KINOMEscan platform)

hIRAK1 = target: T22, hIRAK1 (Homo sapiens, UniProt P51617); assay: KINOMEscan; type: binding
T22 construct: purchased DiscoverX (KINOMEscan panel)

hLXRβ = target: T23, hLXRβ (Homo sapiens, UniProt P55055); assay: Nuclear hormone receptor assay (Eurofins-CEREP); settings: read-out: Relative IC50
T23 construct: Eurofins-CEREP
T23 sequence (P55055 whole entry): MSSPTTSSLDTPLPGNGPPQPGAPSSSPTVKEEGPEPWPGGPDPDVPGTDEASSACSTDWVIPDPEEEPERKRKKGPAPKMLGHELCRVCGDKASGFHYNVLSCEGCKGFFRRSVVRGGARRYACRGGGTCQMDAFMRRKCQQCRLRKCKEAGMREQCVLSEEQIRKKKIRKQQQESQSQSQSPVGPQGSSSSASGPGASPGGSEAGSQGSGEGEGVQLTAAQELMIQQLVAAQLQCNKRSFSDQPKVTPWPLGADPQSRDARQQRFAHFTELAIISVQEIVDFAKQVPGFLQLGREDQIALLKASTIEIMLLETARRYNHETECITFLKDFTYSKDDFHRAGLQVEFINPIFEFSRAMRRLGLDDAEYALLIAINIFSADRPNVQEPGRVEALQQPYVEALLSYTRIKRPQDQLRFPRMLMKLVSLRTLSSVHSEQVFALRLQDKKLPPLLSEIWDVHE

[1] = target: T24, hTYK2(JH2Dom.-pseudokinase) (Homo sapiens, UniProt P29597); assay: KINOMEscan; type: binding
T24 construct: hTYK2(JH2Dom.-pseudokinase); purchased DiscoverX
T24 sequence (P29597 589-875 limits assumed): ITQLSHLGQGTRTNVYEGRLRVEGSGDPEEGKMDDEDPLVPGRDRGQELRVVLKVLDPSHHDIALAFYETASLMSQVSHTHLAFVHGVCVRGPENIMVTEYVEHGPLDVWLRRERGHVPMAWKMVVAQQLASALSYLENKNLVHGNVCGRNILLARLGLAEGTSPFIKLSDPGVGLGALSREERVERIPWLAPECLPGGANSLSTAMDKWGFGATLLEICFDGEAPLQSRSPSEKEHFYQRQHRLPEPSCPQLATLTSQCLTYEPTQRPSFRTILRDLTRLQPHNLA

hRIOK3 = target: T25, hRIOK3 (Homo sapiens, UniProt O14730); assay: KINOMEscan; type: binding
T25 construct: purchased DiscoverX (KINOMEscan platform)

hGAK = target: T26, hGAK (Homo sapiens, UniProt O14976); assay: KINOMEscan; type: binding
T26 construct: purchased DiscoverX

Cc1cn(CCN2CCN(c3ccccc3-c3cc(C#N)cc(C(=O)NCCCN4CCCC4)c3)CC2)c2ccccc12 [LLY-507, 3-cyano-5-{2-[4-[2-(3-methylindol-1-yl)ethyl]piperazin-1-yl]-phenyl}-N-[(3-pyrrolidin-1-yl)propyl]benzamide]
IC50 (hALK(C1156Y)): > 20 µM | % inhibition @ 10 μM (CYP2D6): 61.2% | IC50 (hFGFR2): > 20 µM | IC50 (hEGFR(L858R)): > 20 µM | IC50 (hJAK1(JH1Dom.-catalytic)): > 20 µM | IC50 (hRET(V804M)): > 20 µM | IC50 (hTBK1): > 20 µM | IC50 (hBRAF(V600E)): > 20 µM | % Effect, Potentiation (hADRα1A): -7.9% | IC50 (hADCK4): > 20 µM | IC50 (hMAP3K4): > 20 µM | % Effect, Stimulation (hADRβ1): 52.7% | IC50 (hSNRK): > 20 µM | IC50 (hTAK1): > 20 µM | inhibition at 10 µM (hD2L): 29.8% | IC50 (hCSF1R): > 20 µM | IC50 (hCIT): > 20 µM | IC50 (hAURKC): > 20 µM | IC50 (hMARK3): > 20 µM | IC50 (hYANK3): > 20 µM | inhibition at 10 µM (hADRα2A): -27.7% | IC50 (hJNK3): > 20 µM | IC50 (hCSNK1A1L): > 20 µM | IC50 (hIRAK1): > 20 µM | IC50 (hLXRβ): > 10 µM | IC50 [1]: > 20 µM | IC50 (hRIOK3): > 20 µM | IC50 (hGAK): > 20 µM
